In brackets after ≈: the same amount, converted by molar mass.
Legend:
[1] = system: MCF-7 (breast adenocarcinoma); experiment: SRB cancer cell growth assay, MCF-7; format: cell-based, human; set-up: key to activity class MCF-7: highly active; b: moderately active; weakly active; details: for IC50: Homo sapiens, MCF7, MCF-7, 48 h exposure, SRB, read-out: IC50 (μg/mL) MCF-7
Description: (§1) The in vitro cytotoxic activity the newly synthesized compounds against human breast cell line (MCF7), non-small cell lung cancer NCI-H460, CNS cancer SF-268 and WI 38 (normal fibroblast cells) were evaluated using doxorubicin as the reference drug, according to the method reported by Skehan et al..
(§2) The newly synthesized compounds were evaluated in vitro against three human cancer cell lines; which are MCF-7 (breast adenocarcinoma), NCI-H460 (non-small cell lung cancer) and SF-268 (CNS cancer), and WI 38 (normal fibroblast cells) were used in this study. MCF-7 was obtained from the European Collection of Cell Cultures (ECACC, Salisbury, UK) but NCI-H460, SF-268 and WI 38 were kindly provided by the National Cancer Institute (NCI, Cairo, Egypt). They grow as monolayers routinely maintained in RPMI-1640 medium supplemented with 5% heat inactivated fetal bovine serum (FBS), 2 mM glutamine and antibiotics (penicillin 100 U/mL, streptomycin 100 µg/mL), at 37 °C in a humidified atmosphere containing 5% CO2. Exponentially growing cells were obtained by plating 1.5 × 10^5 cells/mL for MCF-7 and SF-268, and 0.75 × 10^4 cells/mL for NCI-H460 followed by 24 h of incubation. The effect of the vehicle solvent (DMSO) on the growth of these cell lines was evaluated in all experiments by exposing untreated control cells to the maximum concentration (0.5%) of DMSO used in each assay.
(§3) The effect of compounds on the in vitro growth of human tumor cell lines were evaluated according to the procedure adopted by the National Cancer Institute (NCI, […], USA) in the “In vitro Anticancer Drug Discovery Screen” that uses the protein-binding dye sulforhodamine B (SRB) to assess cell growth. In the assay protocol, all cells were incubated at 37 °C under humidified atmosphere containing 5% CO2. Briefly, exponentially cells growing in 96-well plates were then exposed for 48 h to five serial concentrations of each compound, starting from a maximum concentration of 150 μg/mL. Following this exposure period, adherent cells were fixed, washed and stained. The bound stain was solubilized and the absorbance was measured at 492 nm in a Power Wave XS plate reader (Bio-Tek Instruments Inc., Winston, NC, USA). For each test compound and cell line, a dose response curve was obtained and the inhibitory concentration of 50% (IC50), corresponding to the concentration of the compounds that inhibited 50% of the net cell growth was calculated as described elsewhere. Doxorubicin was used as a positive control and tested in the same manner.

[2] = system: NCI-H460 (non-small cell lung cancer); experiment: SRB cancer cell growth assay, NCI-H460; format: cell-based, human; set-up: key to activity class NCI-H460: highly active; b: moderately active; weakly active; details: for IC50: Homo sapiens, NCI-H460, 48 h exposure, SRB, read-out: IC50 (μg/mL) NCI-H460
Description: as §1, §2, §3

SF-268 (CNS cancer) = experiment: SRB cancer cell growth assay, SF-268; format: cell-based, human; set-up: key to activity class SF-268: highly active; b: moderately active; weakly active; details: for IC50: Homo sapiens, SF-268, 48 h exposure, SRB, read-out: IC50 (μg/mL) SF-268
Description: as §1, §2, §3

[3] = system: WI 38 (normal fibroblast cells); experiment: SRB cell growth assay, normal cells WI 38; format: cell-based, human; details: 48 h exposure, non-cytotoxic = IC50 > 100 μg/mL; for IC50: Homo sapiens
Description: as §1, §2, §3

| Compound | melting point [°C] | IC50 [1] [µg/mL] | IC50 [2] [µg/mL] | IC50 (SF-268 (CNS cancer)) [µg/mL] | activity class MCF-7 [1] | activity class NCI-H460 [2] | activity class SF-268 (SF-268 (CNS cancer)) | IC50 (μg/mL) WI 38 [3] | IC50 [3] [µg/mL] |
| --- | --- | --- | --- | --- | --- | --- | --- | --- | --- |
| N#Cc1c(-c2ccc(F)cc2)cc(-c2ccc(Cl)cc2Cl)nc1NCCc1ccccc1 [Compound 14, 6-(2,4-Dichlorophenyl)-4-(4-fluorophenyl)-2-(phenylethylamino)nicotinonitrile] | 142 to 143 |  |  |  |  |  |  |  |  |
| Nc1nnc2[nH]c(-c3ccc(Cl)cc3Cl)cc(-c3ccc(F)cc3)c1-2 [Compound 4, 6-(2,4-Dichlorophenyl)-4-(4-fluorophenyl)-7H-pyrazolo[3,4-b]pyridin-3-amine] | 309 to 311 | 67 ± 6.23 (≈ 180 µM) | 56.8 ± 8.2 (≈ 152 µM) | 69 ± 9.15 (≈ 185 µM) | c | c | c |  | 18.6 ± 1.21 (≈ 49.9 µM) |
| N#Cc1c(-c2ccc(F)cc2)cc(-c2ccc(Cl)cc2Cl)nc1N1CCOCC1 [Compound 15b, 6-(2,4-Dichlorophenyl)-4-(4-fluorophenyl)-2-morpholinonicotinonitrile] | 112 to 114 |  |  |  |  |  |  |  |  |
| N#Cc1c(-c2ccc(F)cc2)cc(-c2ccc(Cl)cc2Cl)nc1NN=Cc1cccc2ccccc12 [Compound 21e, 6-(2,4-Dichlorophenyl)-4-(4-fluorophenyl)-2-[2-(naphthalen-1-ylmethylene)hydrazinyl] nicotinonitrile] | 296 to 298 |  |  |  |  |  |  |  |  |
| CC1CCCCN1c1nc(-c2ccc(Cl)cc2Cl)cc(-c2ccc(F)cc2)c1C#N (centres unmarked) [Compound 15a, 6-(2,4-Dichlorophenyl)-4-(4-fluorophenyl)-2-(2-methylpiperidin-1-yl)nicotinonitrile] | 98 to 100 | 37.1 ± 7.34 (≈ 84.2 µM) | 16.4 ± 2.32 (≈ 37.2 µM) | 38.9 ± 2.63 (≈ 88.4 µM) | c | b | c |  | 30.6 ± 6.21 (≈ 69.5 µM) |
| N#Cc1c(-c2ccc(F)cc2)cc(-c2ccc(Cl)cc2Cl)nc1NN=Cc1ccc([N+](=O)[O-])cc1 [Compound 21b, 6-(2,4-Dichlorophenyl)-4-(4-fluorophenyl)-2-[2-(4-nitrobenzylidene)hydrazinyl]nicotinonitrile] | 281 to 283 |  |  |  |  |  |  |  |  |
| Cc1cc(C)n(-c2nc(-c3ccc(Cl)cc3Cl)cc(-c3ccc(F)cc3)c2C#N)n1 [Compound 19, 6-(2,4-Dichlorophenyl)-2-(3,5-dimethyl-1H-pyrazol-1-yl)-4-(4-fluorophenyl)nicotinonitrile] | 287 to 289 | 75.2 ± 13.9 (≈ 172 µM) | 62.3 ± 10.3 (≈ 142 µM) | 10.4 ± 4.19 (≈ 23.8 µM) | c | c | a |  | 50.2 ± 10.2 (≈ 115 µM) |
| COc1cccc2c1C(=O)c1c(O)c3c(c(O)c1C2=O)C[C@@](O)(C(=O)CO)C[C@@H]3O[C@H]1C[C@H](N)[C@H](O)[C@H](C)O1 [Doxorubicin, reference compound] |  | 0.04 ± 0.008 (≈ 0.0736 µM) | 0.09 ± 0.008 (≈ 0.166 µM) | 0.09 ± 0.007 (≈ 0.166 µM) |  |  |  | non-cytotoxic |  |
| N#Cc1c(-c2ccc(F)cc2)cc(-c2ccc(Cl)cc2Cl)nc1NN=Cc1ccccc1Br [Compound 21a, 2-[2-(2-Bromobenzylidene)hydrazinyl]-6-(2,4-dichlorophenyl)-4-(4-fluorophenyl)nicotinonitrile] | 226 to 228 |  |  |  |  |  |  |  |  |

Continued, in another order:

| melting point [°C] | IC50 [1] [µg/mL] | IC50 [2] [µg/mL] | IC50 (SF-268 (CNS cancer)) [µg/mL] | Compound | activity class MCF-7 [1] | activity class NCI-H460 [2] | activity class SF-268 (SF-268 (CNS cancer)) | IC50 (μg/mL) WI 38 [3] | IC50 [3] [µg/mL] |
| --- | --- | --- | --- | --- | --- | --- | --- | --- | --- |
| 99 to 101 | 0.01 ± 0.002 (≈ 0.0246 µM) | 0.02 ± 0.001 (≈ 0.0491 µM) | 0.01 ± 0.003 (≈ 0.0246 µM) | N#Cc1c(-c2ccc(F)cc2)cc(-c2ccc(Cl)cc2Cl)nc1C(C#N)C#N [Compound 16, 2-[3-Cyano-6-(2,4-dichlorophenyl)-4-(4-fluorophenyl)pyridin-2-yl]malononitrile] | a | a | a | non-cytotoxic | > 100 |
| 223 to 224 | 0.61 ± 0.082 (≈ 1.63 µM) | 0.86 ± 0.02 (≈ 2.3 µM) | 2.19 ± 0.83 (≈ 5.87 µM) | N#Cc1c(-c2ccc(F)cc2)cc(-c2ccc(Cl)cc2Cl)nc1NN [Compound 17, 6-(2,4-Dichlorophenyl)-4-(4-fluorophenyl)-2-hydrazinylnicotinonitrile] | a | a | a |  | 64.1 ± 1.22 (≈ 172 µM) |
| 188 to 189 | 36.2 ± 2.14 (≈ 85.2 µM) | 74 ± 3.65 (≈ 174 µM) | 62.1 ± 3.61 (≈ 146 µM) | N#Cc1c(N)c2c(-c3ccc(F)cc3)cc(-c3ccc(Cl)cc3Cl)nc2[nH]c1=O [Compound 7, 4-Amino-7-(2,4-dichlorophenyl)-5-(4-fluorophenyl)-2-oxo-1,2-dihydro-1,8-naphthyridine-3-carbonitrile] | c | c | c |  | 23 ± 8.2 (≈ 54 µM) |
| 119 to 121 | 0.02 ± 0.002 (≈ 0.0449 µM) | 0.01 ± 0.002 (≈ 0.0225 µM) | 0.02 ± 0.045 (≈ 0.0449 µM) | CCOC(=O)COc1nc(-c2ccc(Cl)cc2Cl)cc(-c2ccc(F)cc2)c1C#N [Compound 8, Ethyl 2-[3-cyano-6-(2,4-dichlorophenyl)-4-(4-fluorophenyl)pyridin-2-yloxy]acetate] | a | a | a | non-cytotoxic | > 100 |
| 246 to 248 | 20.2 ± 2.26 (≈ 46 µM) | 0.01 ± 0.003 (≈ 0.0228 µM) | 20.2 ± 3.26 (≈ 46 µM) | CC1=NN(c2nc(-c3ccc(Cl)cc3Cl)cc(-c3ccc(F)cc3)c2C#N)C(=O)C1 [Compound 18, 6-(2,4-Dichlorophenyl)-4-(4-fluorophenyl)-2-(3-methyl-5-oxo-4,5-dihydro-1H-pyrazol-1-yl) nicotinonitrile] | b | a | b |  | 29.8 ± 4.88 (≈ 67.9 µM) |
| 197 to 199 | 2.41 ± 1.24 (≈ 5.59 µM) | 2.3 ± 2.86 (≈ 5.33 µM) | 0.46 ± 0.06 (≈ 1.07 µM) | N#Cc1c(-c2ccc(F)cc2)cc(-c2ccc(Cl)cc2Cl)nc1OCC(=O)NN [Compound 9, 2-[3-Cyano-6-(2,4-dichlorophenyl)-4-(4-fluorophenyl)pyridin-2-yloxy]acetohydrazide] | a | a | a |  | 62.2 ± 2.02 (≈ 144 µM) |
| 276 to 277 |  |  |  | N#Cc1c(-c2ccc(F)cc2)cc(-c2ccc(Cl)cc2Cl)[nH]c1=O [Compound 2, 6-(2,4-Dichlorophenyl)-4-(4-fluorophenyl)-2-oxo-1,2-dihydropyridin-3-carbonitrile] |  |  |  |  |  |
| 158 to 159 |  |  |  | N#Cc1c(-c2ccc(F)cc2)cc(-c2ccc(Cl)cc2Cl)nc1NCc1ccccc1 [Compound 12, 2-(Benzylamino)-6-(2,4-dichlorophenyl)-4-(4-fluorophenyl)nicotinonitrile] |  |  |  |  |  |
| 181 to 182 |  |  |  | N#Cc1c(-c2ccc(F)cc2)cc(-c2ccc(Cl)cc2Cl)nc1Cl [Compound 11, 2-Chloro-6-(2,4-dichlorophenyl)-4-(4-fluorophenyl)nicotinonitrile] |  |  |  |  |  |
